Test results published in patent US4289765A, “4-Aminopyridines and medicaments containing the same” (Hoechst Aktiengesellschaft, priority 1979, dated 1981).
Where a name gives a salt, the structure may show the parent alone. Read-outs that look alike come from different tables or passages of the source.

Experiments:
[1] = test system: experimental bronchial spasms caused by histamine; assay: Bronchospasmolytic action, histamine-induced bronchial spasm (Konzett and Roessler); assay type: in vivo, guinea pig; details: Cavia porcellus, urethane-anaesthetized guinea pigs, dose reducing spasm to 50%, read-out: Bronchospasmolytic action (ED50) as compared with histamine
Procedure: (§1) The test substances were administered in an aqueous solution either by the intravenous (i.v.) or the intraduodenal (i.d.) route. Water-insoluble compounds were applied i.d. in carboxymethyl cellulose suspensions.

in vivo = details: mouse, ip
Procedure: The LD50 values or the LD50 ranges were determined according to common standards via the mortality occurring over 7 days with NMRI mice following a single intraperitoneal (i.p.) administration.

[2] = test system: experimental bronchial spasms caused by acetyl choline; assay: Bronchospasmolytic action, acetyl choline-induced bronchial spasm (Konzett and Roessler); assay type: in vivo, guinea pig; details: Cavia porcellus, urethane-anaesthetized guinea pigs, dose reducing spasm to 50%, read-out: Bronchospasmolytic action (ED50) as compared with acetyl choline
Procedure: as §1

[3] = test system: experimental bronchial spasms caused by serotonin; assay: Bronchospasmolytic action, serotonin-induced bronchial spasm (Konzett and Roessler); assay type: in vivo, guinea pig; details: Cavia porcellus, urethane-anaesthetized guinea pigs, dose reducing spasm to 50%, read-out: Bronchospasmolytic action (ED50) as compared with serotonin
Procedure: as §1

| Structure (SMILES) | ED50 ([1]; iv) [mg/kg] | ED50 ([1]; i.d. (intraduodenal)) [mg/kg] | LD50 at 168 h (in vivo) [mg/kg] | ED50 ([2]; iv) [mg/kg] | ED50 ([2]; i.d. (intraduodenal)) [mg/kg] | ED50 ([3]; iv) [mg/kg] | ED50 ([3]; i.d. (intraduodenal)) [mg/kg] |
| --- | --- | --- | --- | --- | --- | --- | --- |
| Cc1cc(N2CCSCC2)c([N+](=O)[O-])c(C)n1 [Example 1, 4-(2,6-Dimethyl-3-nitro-4-pyridyl)-thiomorpholinohydrochloride] | 1.05 | 2.6 | 160 | 1.47 | 4.13 | 1.32 | 2.52 |
| Cc1cc(N2CCOCC2)c([N+](=O)[O-])c(C)n1 [Example 9] | 1 to 3 | – | 300 to 1000 | 3 to 10 | – | – | – |
| Cc1cc(N2CCSCC2)c(C#N)c(C)n1 [Example 13] | 1 to 3 | 1 to 3 | 150 to 300 | 3 | 3 to 10 | 3 | – |
| CCCc1cc(N2CCSCC2)c([N+](=O)[O-])c(CCC)n1 [Example 14] | 3 | – | 300 to 600 | 1 to 3 | – | 3 to 10 | – |
| Cc1cc(N2CCSC(C)C2)c([N+](=O)[O-])c(C)n1 (centres unmarked) [Example 15] | 3 to 10 | – | 150 to 300 | 3 to 10 | – | – | – |
| COC(CNc1cc(C)nc(C)c1[N+](=O)[O-])OC [Example 17] | > 10 | – | 400 to 800 | 3 to 10 | – | – | – |
| Cc1cc(NCCCl)c([N+](=O)[O-])c(C)n1 [Example 18] | 3 | – | 150 to 300 | 1 to 3 | – | 1 to 3 | – |
| Cc1cc(NCc2ccc3c(c2)OCO3)c([N+](=O)[O-])c(C)n1 [Example 22] | 3 | – | – | 3 to 10 | – | – | – |
| Cc1cc(NCc2ccc(S(N)(=O)=O)cc2)c([N+](=O)[O-])c(C)n1 [Example 23] | 3 to 10 | – | 600 to 1200 | 1 to 3 | – | – | – |
| COc1ccc(CNc2cc(C)nc(C)c2[N+](=O)[O-])cc1 [Example 24] | 0.3 to 1 | – | > 600 | 1 to 3 | – | 1 to 3 | – |
| Cc1cc(NCCF)c([N+](=O)[O-])c(C)n1 [Example 32] | 1 | – | 150 to 300 | 3 to 10 | – | 1 to 3 | – |
| Cn1c(=O)c2[nH]cnc2n(C)c1=O [theophylline-ethylene diamine, reference compound] | 5.6 | – | – | 8.3 | 10 to 20 | 7.3 | – |
